Experimental findings from patent US20150231199A1, “PEPTIDES AND THEIR USES” (priority 2012, published 2015) are described below.

Structures are written as SMILES. Converted amounts (≈) assume the structure as drawn. Read-outs that look alike come from different tables or passages of the source. Positions of bridges follow the written chain, without caps; N, C: chain ends. Residues, ends and D or L forms follow the SMILES beside them. Chains are numbered I, II in the order given. *: point of attachment. Myristoyl = CCCCCCCCCCCCCC(=O)*; Lauroyl = CCCCCCCCCCCC(=O)*; Hexanoyl = CCCCCC(=O)* Where only a bound is given, the exact number is not on record here.

Broadly, the MIC is the lowest concentration found to suppress growth. A lower MIC goes with a more susceptible organism. As a reminder, the CC50 is the concentration giving 50% cytotoxicity.

Series [1] deals with red blood cells (RBCs) of New Zealand white rabbits. The series can be described thus: in vitro. Format: cell-based, rabbit. The protocol:
Fresh red blood cells (RBCs) of New Zealand white rabbits were used for this experiment. The RBCs obtained were centrifuged at 3000 rpm for 10 min. Supernatant was removed and washed twice with sterile PBS Buffer (20 mM, 100 mM NaCl, pH 7). The RBCs were further diluted to 8% stock solution in PBS. Peptides were dissolved in PBS with desired stock concentrations. When compounds were mixed with RBCs, desired concentration of 4% RBCs was obtained. For C14V2D and C16V2D, they were dissolved in Dimethylformamide ([…]; DMF) with desired stock concentrations. When compounds were mixed with RBCs, desired concentration of 4% RBCs and 0.5% DMF was obtained. DMF concentration of <1% was used as it had negligible hemolytic activity on RBCs. The mixtures were added to 1.5 mL centrifuge tubes and incubated at 37° C. for 1 h. After incubation, the blood was centrifuged at 3000 rpm for 3 min at 4° C. 100 μL of the supernatant was transferred into transparent 96-well plate. The absorbance was measured at 576 nm using a microplate reader (TECAN Infinite 200M Pro). 2% Triton X-100 was used as positive control. PBS was used as negative controls. The amount of hemoglobin released was calculated using the following equation: […]

In series [2] the test system is Klebsiella pneumoniae DM4299. Format: cell-based. The protocol: (§1) V2-dimer and all lipopeptides (FIG. 1A) used in this study were purchased from Mimotopes. All peptides were prepared by dissolving in sterile water to make 1000 μg/mL stock solutions. Minimum Inhibitory Concentration (MIC) determination was carried out in Mueller Hinton Broth (MHB) using the broth macro-dilution method as described by the Clinical and Laboratory Standards Institute (CLSI). Then, cation-adjusted MHB (CA-MHB) was used to prepare serial two fold dilutions of the compounds in test tubes. The concentration of the inoculums suspension was also adjusted to approximately 5×10^5 Colony Forming Units (CFU)/mL using MHB. Bacteria were incubated with the compounds for 24 hours at 35° C. prior to reading. In this study, Gram-positive strains used were Staphylococcus aureus DM4001 and Methicillin-resistant Staphylococcus aureus (MRSA) DM9808. Gram-negative strains used were Klebsiella pneumoniae DM4299, Pseudomonas aeruginosa ATCC23155 and Escherichia coli ATCC27922.

Series [3] relates to Escherichia coli ATCC27922. Format: cell-based. The method, then:
as §1

Another series has as its system Staphylococcus aureus. The format is cell-based. The protocol:
as §1
(§2) Methods used are as described in Example 1 above.

Another series concerns Pseudomonas aeruginosa. Format: cell-based. The protocol: as §1, §2
The test system of series [4] is Methicillin-resistant Staphylococcus aureus (MRSA). The format is cell-based. The method, then: as §1, §2
The nature of series [5]: in vitro. Format: cell-based. The note with it: human. The protocol: Cells were plated at a density of 10,000 cells per well in a 96-well opaque white plate (SPL Life Sciences Inc. Korea). Test compounds of various concentrations and controls were added to appropriate wells such that the final volume is 100 μl in each well. After 4 hours of exposure to the test compounds, the plates were removed from 37° C. incubator and equilibrated to 22° C. for 30 minutes. One hundred microliters of CellTiter-Glo reagent (Promega Inc. USA) was added to each well and the ATP assay was performed according to manufacturer's instructions. Luminescence was assessed using a micro-plate reader (Tecan Infinite 200 Pro, Switzerland). The cells exposed to 1% Triton X-100 were used as a positive control. The percent cell viable of each compound was determined using the formula below (L=Luminescence detected):
% Viability=[(Lnegative controls)−(Lexperiments)]/[(Lnegative controls)−(Lpositive controls)]×100

The next series deals with Klebsiella pneumoniae. Format: cell-based. The method, then:
The minimum inhibitory concentration (MIC) was determined using the broth microdilution method. Bacterial cells (shown in Table 6) are grown in Mueller Hinton Broth (MHB) overnight. 100 μL of adjusted inoculum in MHB is added to 100 μL of each dilution of peptide or antibiotics dissolved in the broth, so as to yield a final cell density of 10^5 to 10^6 cfu/mL in each well. The plates were incubated at 35° C. for 24 h and the absorbance at 600 nm (OD600) was monitored every 30 minutes. A positive control well contained the broth and organisms (no peptides/antibiotics), and a negative control tube contains only the broth. The MIC of peptides for each clinical isolate or reference organism was recorded as the lowest concentration of peptide/antibiotic that inhibited visible growth of the test organism. To study the effect of Mg2+ on MIC of branched peptides, the concentration of MgCl2 was varied in MHB and the MIC was determined as before.

Series [6] in a line: in vitro. Format: cell-based. The note with it: human. The method, then:
The cytotoxicity of individual compounds screened was determined by the lactate dehydrogenase (LDH) assay. In brief, human corneal fibroblast cells were plated at a density of 10,000 cells per well in a 96-well opaque white plate (SPL Life Sciences Inc). Test compounds of various concentrations and controls were added to appropriate wells such that the final volume is 100 μl in each well. After 4 hours of exposure to the test compounds, the plates were removed from 37° C. incubator and equilibrated to 22° C. for 30 minutes. One hundred microliters of Cyto-TOX One reagent (Promega Inc. USA) was added to each well and the LDH assay was performed according to manufacturer's instructions. Fluorescence was assessed at an excitation wavelength of 560 nm and an emission wavelength of 590 nm using a micro-plate reader (Tecan Infinite 200 Pro, Switzerland). The cells exposed to 1% Triton X-100 were used as a positive control and treated as maximum releasing of LDH. The percent specific cytotoxicity of each compound was determined using the formula below (I=intensity):
% Cytotoxicity=[(Iexperiments)−(Inegative controls)]/[Ipositive controls)−(Inegative controls)]×100
The source holds these as a separate data set.

In the case of `CCCCCC(=O)N[C@@H](CCCNC(=N)N)C(=O)NCC(=O)N[C@@H](CCCNC(=N)N)C(=O)N[C@@H](CCCCN)C(=O)N[C@H](C(=O)N[C@H](C(=O)N[C@@H](CCCNC(=N)N)C(=O)N[C@@H](CCCNC(=N)N)C(=O)NCCCC[C@H](NC(=O)[C@H](CCCNC(=N)N)NC(=O)[C@H](CCCNC(=N)N)NC(=O)[C@@H](NC(=O)[C@@H](NC(=O)[C@H](CCCCN)NC(=O)[C@H](CCCNC(=N)N)NC(=O)CNC(=O)[C@H](CCCNC(=N)N)NC(=O)CCCCC)C(C)C)C(C)C)C(=O)N[C@@H](CCCCN)C(=O)O)C(C)C)C(C)C` [Peptide C6-V2D, (C5H11—CO—NH—RGRKVVRR)2KK] (I: Hexanoyl-RGRKVVRRKK-OH / II: Hexanoyl-RGRKVVRR; amide I:9-II:C), the HC10 in series [1] (red cells of rabbit, 1 h) was >2000 µg/mL. Besides, the minimal inhibitory concentration (MIC) in [2] is 5.03 µM (≈ 12.5 µg/mL); in series [3], 2.51 µM (≈ 6.24 µg/mL); in the series on Staphylococcus aureus it was 2.51 µM (≈ 6.24 µg/mL); against Pseudomonas aeruginosa it was 5.03 µM (≈ 12.5 µg/mL); in [4], 1.26 µM (≈ 3.13 µg/mL).
Take `CCCCCCCCCCCC(=O)N[C@@H](CCCNC(=N)N)C(=O)NCC(=O)N[C@@H](CCCNC(=N)N)C(=O)N[C@@H](CCCCN)C(=O)N[C@H](C(=O)N[C@H](C(=O)N[C@@H](CCCNC(=N)N)C(=O)N[C@@H](CCCNC(=N)N)C(=O)NCCCC[C@H](NC(=O)[C@H](CCCNC(=N)N)NC(=O)[C@H](CCCNC(=N)N)NC(=O)[C@@H](NC(=O)[C@@H](NC(=O)[C@H](CCCCN)NC(=O)[C@H](CCCNC(=N)N)NC(=O)CNC(=O)[C@H](CCCNC(=N)N)NC(=O)CCCCCCCCCCC)C(C)C)C(C)C)C(=O)N[C@@H](CCCCN)C(=O)O)C(C)C)C(C)C` [Peptide C12-V2D, (C11H23—CO—NH—RGRKVVRR)2KK] (I: Lauroyl-RGRKVVRRKK-OH / II: Lauroyl-RGRKVVRR; amide I:9-II:C): the HC10 in series [1] stood at 542.8 ± 53.0 µg/mL. In addition, the MIC (in [2]; in [3]; with Staphylococcus aureus; in the series on Pseudomonas aeruginosa; in series [4]) was 4.71 µM (≈ 12.5 µg/mL) each time.
Take `CCCCCCCCCCCCCC(=O)N[C@@H](CCCNC(=N)N)C(=O)NCC(=O)N[C@@H](CCCNC(=N)N)C(=O)N[C@@H](CCCCN)C(=O)N[C@H](C(=O)N[C@H](C(=O)N[C@@H](CCCNC(=N)N)C(=O)N[C@@H](CCCNC(=N)N)C(=O)NCCCC[C@H](NC(=O)[C@H](CCCNC(=N)N)NC(=O)[C@H](CCCNC(=N)N)NC(=O)[C@@H](NC(=O)[C@@H](NC(=O)[C@H](CCCCN)NC(=O)[C@H](CCCNC(=N)N)NC(=O)CNC(=O)[C@H](CCCNC(=N)N)NC(=O)CCCCCCCCCCCCC)C(C)C)C(C)C)C(=O)N[C@@H](CCCCN)C(=O)O)C(C)C)C(C)C` [Peptide C14-V2D, (C13H23—CO—NH—RGRKVVRR)2KK] (I: Myristoyl-RGRKVVRRKK-OH / II: Myristoyl-RGRKVVRR; amide I:9-II:C; N-terminus and C-terminus assumed): in series [1], the HC10 entry is given as “^b251.82 ± 5.2 ug/mL”. Besides, the MIC was 9.22 µM (≈ 25 µg/mL) in series [2]; 1.15 µM (≈ 3.12 µg/mL) in series [3]; 2.30 µM (≈ 6.24 µg/mL) against Staphylococcus aureus; 2.30 µM (≈ 6.24 µg/mL) in the series on Pseudomonas aeruginosa; 2.30 µM (≈ 6.24 µg/mL) in series [4].
In the case of `CC(C)[C@H](NC(=O)[C@H](CCCCN)NC(=O)[C@H](CCCNC(=N)N)NC(=O)CNC(=O)[C@@H](N)CCCNC(=N)N)C(=O)N[C@H](C(=O)N[C@@H](CCCNC(=N)N)C(=O)N[C@@H](CCCNC(=N)N)C(=O)NCCCC[C@H](NC(=O)[C@H](CCCNC(=N)N)NC(=O)[C@H](CCCNC(=N)N)NC(=O)[C@@H](NC(=O)[C@@H](NC(=O)[C@H](CCCCN)NC(=O)[C@H](CCCNC(=N)N)NC(=O)CNC(=O)[C@@H](N)CCCNC(=N)N)C(C)C)C(C)C)C(=O)N[C@@H](CCCCN)C(=O)O)C(C)C` [Peptide V2D, (RGRKVVRR)2KK] (I: H-RGRKVVRRKK-OH / II: H-RGRKVVRR; amide I:9-II:C), the CC50 at 4 h in the series “in vitro [5]” and in the series “in vitro [6]” was > 1000 µM throughout. For the same molecule, the MIC in the series with Klebsiella pneumoniae was 2.7 µM (≈ 6.19 µg/mL); in [2], 5.46 µM (≈ 12.5 µg/mL); in series [3], 2.73 µM (≈ 6.25 µg/mL); with Staphylococcus aureus it was 5.46 µM (≈ 12.5 µg/mL); in the series on Pseudomonas aeruginosa, 5.46 µM (≈ 12.5 µg/mL); in [4], 2.73 µM (≈ 6.25 µg/mL). Further, in series [1] (red cells of rabbit, 1 h), the HC10 was >2000 µg/mL.
